According to patent US8518895B2, “Method for treating hyponatremia employing an SGLT2 inhibitor and composition containing same” (Bristol-Myers Squibb Company, priority 2008, dated 2013):

Experiments:
[1] = system: diabetic patients; assay: 12-week treatment of diabetic patients: urine glucose, HbA1C, urine volume (Table 5)
[2] = system: type 2 diabetic patients
Source text: C-aryl glucoside SGLT2 inhibitors are known to reduce blood glucose levels in diabetic patients, see U.S. Pat. No. 6,774,112, which is incorporated herein by reference in its entirety, but not known to increase urine volume. […] Metformin reduces plasma glucose concentration by non-renal mechanisms and is not known to induce glucosuria. […] On day 1 and day 14, the patients were examined for the levels of glucosuria and changes in urine volumes.

[3] = system: patients with diabetes; conditions: patients with diabetes, 5, 25 or 100 mg, FIG. 2
Source text: The levels of urine glucose of all subjects are shown in the plot and the mean urine glucose is in the darker lines.

[4] = system: Healthy Normal Volunteers; assay: Urinary glucose excretion over 24 hr in healthy normal volunteers after SGLT2 inhibitors; type: in vivo, human
[5] = diabetic patients, 2.5-50 mg, after 12 weeks of treatment

Compound: CN(C)C(=N)N=C(N)N [Metformin, metformin, reference compound]
- Urine Output (mL), change from baseline at week 12 ([1]; Metformin group, N = 56, mean ± standard deviation): -95.84 ± 775.41 mL
- HbA1C levels ([1]; patients treated with 1500 mg metformin): 0.73%

Compound: CCOc1ccc(Cc2cc([C@@H]3O[C@H](CO)[C@@H](O)[C@H](O)[C@H]3O)ccc2Cl)cc1 [dapagliflozin PGS]
- fasting serum glucose (FSG) levels ([2]; two-week period): Dose-dependent reduction
- postprandial glucose levels in oral glucose tolerance tests (OGTT) ([2]; two-week period): reduced
- urine volumes ([2]; two-week period): no increase
- urinary glucose levels within a 24-hour time period ([2]; versus placebo, FIG. 3): increased
- urine glucose excretion compared to placebo [3]: higher levels of urine glucose excretion
- Urine Output (mL), change from baseline at week 12 ([1]; 2.5 mg, n = 59, mean ± standard deviation): 106.62 ± 606.88 mL
- Urine Output (mL), change from baseline at week 12 ([1]; 5 mg, n = 58, mean ± standard deviation): 339.96 ± 551.34 mL
- Urine Output (mL), change from baseline at week 12 ([1]; 10 mg, n = 47, mean ± standard deviation): 374.49 ± 741.62 mL
- Urine Output (mL), change from baseline at week 12 ([1]; 20 mg, n = 59, mean ± standard deviation): 374.91 ± 723.13 mL
- Urine Output (mL), change from baseline at week 12 ([1]; 50 mg, n = 56, mean ± standard deviation): 470.26 ± 797.51 mL
- increase in urine volume ([1]; diabetic patients treated for 12 weeks): 5-20%
- OGT [1, 5]: improved
- glucose excreted in urine every day [1, 5]: 50 to 60 g
- reduced HbA1C levels [1, 5]: 0.71-0.9%
- Side effects ([1]; observed in some individuals, 12 weeks): urinary tract infection, dizziness, or vaginal infection

Compound: COc1ccc(Cc2sccc2O[C@@H]2O[C@H](CO)[C@@H](O)[C@H](O)[C@H]2O)cc1 [AVE 2268]
- Glucose Output over 24 hr ([4]; dose 1200 mg): 14 g
- Glucose Output over 24 hr ([4]; dose 2000 mg): 21 g

Compound: CCOc1ccc(Cc2cc([C@@H]3O[C@H](CO)[C@@H](O)[C@H](O)[C@H]3O)ccc2Cl)cc1 [Dapagliflozin, dapagliflozin]
- Glucose Output over 24 hr ([4]; dose 5 mg): ~32 g
- Glucose Output over 24 hr ([4]; dose 20 mg): ~64 g
